Source: patent US20240174690A1, “ANNULATED 2-AMINO-3-CYANO THIOPHENES AND DERIVATIVES FOR THE TREATMENT OF CANCER” (BOEHRINGER INGELHEIM INTERNATIONAL GMBH, priority 2021, published 2024)
Where two headings read alike, the source gives them in different places.

Tests used:
KRAS (G12C)::SOS1 = KRAS (G12C)::SOS1 (Homo sapiens (Human), UniProt P01116, C118S/C51S/C80L/G12C); assay: KRAS::SOS1 AlphaScreen binding assay, KRAS G12C
How it was run: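 KRAS 1-169 (biotinylated avi-tag) with GST-SOS1 564-1049 and 10 µM GDP in PBS/0.1% BSA/0.05% Tween 20: WT and G13D 10 nM each with 10 nM SOS1; G12D 10 nM and G12C 7.5 nM with 5 nM SOS1. After 30 min, glutathione acceptor/streptavidin donor beads were added for 60 min at RT in the dark, then AlphaScreen read; 4-parameter IC50.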

[1] = system: KRAS G12D-dependent Ba/F3 cells; assay: Ba/F3 proliferation assay, KRAS G12D; format: cell-based; settings: AlamarBlue
How it was run: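 Proliferation of mutant-KRAS-driven Ba/F3 cells cultured without IL-3 is followed with AlamarBlue after compound addition. Curves are fitted from duplicate wells.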

AsPC-1 cells = assay: AsPC-1 CTG proliferation assay (120 h) (pancreatic cancer, G12D); format: cell-based
How it was run: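 CellTiter-Glo luminescence, normalised to DMSO wells, measured viability after 120 h compound exposure. Cells were AsPC-1 pancreatic cancer (G12D) plated at 2000 per well in RPMI/10% FCS the day before dosing. IC50 derived by four-parameter regression.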

KRAS (G12C)::SOS1, sequence (P01116 other isoform, or with tags, fused parts or gaps G12C/C51S/C80L/C118S): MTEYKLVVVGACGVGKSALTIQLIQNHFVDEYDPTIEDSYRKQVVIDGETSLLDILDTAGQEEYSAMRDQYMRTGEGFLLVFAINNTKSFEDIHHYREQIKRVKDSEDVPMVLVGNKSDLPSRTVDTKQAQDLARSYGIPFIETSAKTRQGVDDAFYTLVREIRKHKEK

Row | Compound | IC50 (KRAS (G12C)::SOS1) [nM] | IC50 ([1]; Mus musculus, BaF3, 72 h) [nM] | IC50 (AsPC-1 cells; Homo sapiens, ASPC1) [nM] | IC50 (AsPC-1 cells) [nM] | IC50 ([1]; 72 h) [nM]
1 | C[C@H]1CN(C)CCCN1c1nc(-c2onc3c2CCC[C@@]32CCCc3sc(N)c(C#N)c32)cc(N2CCN(C)C3(CC3)C2)n1 [I-42] | 606 | 440 |  |  | 
2 | C[C@H](Oc1cc(-n2ccc(C(=O)O)n2)nc(-c2noc3c2CCC[C@@]32CCCc3sc(N)c(C#N)c32)n1)[C@@H]1CCCN1C [II-24] | 2 | > 25000 | > 25000 |  | 
3 | C[C@H](Oc1cc(N2CCN(C)C3(COC3)C2)nc(-c2onc3c2CCC[C@@]32CCCc3sc(N)c(C#N)c32)n1)[C@@H]1C[C@@H](F)CN1C [I-37] | 2 | 78 | 609 |  | 
4 | C[C@H](Oc1cc(N2CCNC3(COC3)C2)nc(-c2onc3c2CCC[C@@]32CCCc3sc(N)c(C#N)c32)n1)[C@@H]1CCCN1C [I-4] | 2 | 9 | 64 |  | 
5 | C[C@H](Oc1cc(-c2ccn(C)n2)nc(-c2onc3c2CCC[C@@]32CCCc3sc(N)c(C#N)c32)n1)[C@@H]1CCCN1C [I-21] | 2 |  |  | 2980 | 14
6 | Cc1ccc(-c2cc(O[C@@H](C)[C@@H]3CCCN3C)nc(-c3onc4c3CCC[C@@]43CCCc4sc(N)c(C#N)c43)n2)cn1 [I-28] | 3 | 250 | 3420 |  | 
7 | C[C@H](Oc1cc(C2CCCO2)nc(-c2noc3c2CCC[C@@]32CCCc3sc(N)c(C#N)c32)n1)[C@@H]1CCCN1C (stereo partly shown) [II-44] | 2 | 32 | 2160 |  | 
8 | C[C@H](Oc1cc(N2CCN(C)C3(CCC3)C2)nc(-c2onc3c2CCC[C@@]32CCCc3sc(N)c(C#N)c32)n1)[C@@H]1CCCN1C [I-44] | 13 | 91 | 980 |  | 
9 | C[C@H](Oc1nc(-c2noc3c2CCC[C@@]32CCCc3sc(N)c(C#N)c32)cc(N2C[C@H](C)N[C@@H](C)C2)n1)[C@@H]1CCCN1C [II-46] | 37 | 116 | 2740 |  | 
10 | CO[C@H]1CCN(C)[C@@H]1[C@H](C)Oc1cc(N2CCNC3(CC3)C2)nc(-c2onc3c2CCC[C@@]32CCCc3sc(N)c(C#N)c32)n1 [I-49] | 3 | 3 | 20 |  | 
11 | C[C@H](Oc1cc(-n2ccsc2=O)nc(-c2noc3c2CCC[C@@]32CCCc3sc(N)c(C#N)c32)n1)[C@@H]1CCCN1C [II-135] |  | 1040 | 1390 |  | 
12 | C[C@H](Oc1cc(-c2ccn(C)n2)nc(-c2noc3c2CCC[C@@]32CCCc3sc(N)c(C#N)c32)n1)[C@@H]1C[C@@H](F)CN1C [II-27] | 2 | 49 | 4100 |  | 
13 | CO[C@H]1CCN(C)[C@@H]1[C@H](C)Oc1cc(-n2ccc(C(=O)N[C@@H]3CCOC3)n2)nc(-c2onc3c2CCC[C@@]32CCCc3sc(N)c(C#N)c32)n1 [I-53] | 1 | 12 | 414 |  | 
14 | C[C@H](Oc1cc(N2CCNC3(CCC3)C2)nc(-c2onc3c2CCC[C@@]32CCCc3sc(N)c(C#N)c32)n1)[C@@H]1CCCN1C [I-3] | 3 | 5 | 273 |  | 
15 | C[C@H](Oc1cc(-c2cnn(C)n2)nc(-c2noc3c2CCC[C@@]32CCCc3sc(N)c(C#N)c32)n1)[C@@H]1C[C@@H](F)CN1C [II-28] | 7 | 90 | 5070 |  | 
16 | C[C@H](Oc1cc(-n2ccc(C(=O)N(C)C3COC3)n2)nc(-c2onc3c2CCC[C@@]32CCCc3sc(N)c(C#N)c32)n1)[C@@H]1CCCN1C [I-60] | 1 | 22 | 779 |  | 
17 | C[C@H](Oc1cc(N2CC[C@H](N3CCCCC3)C2)nc(-c2noc3c2CCC[C@@]32CCCc3sc(N)c(C#N)c32)n1)[C@@H]1CCCN1C [II-12] | 8 | 20 | 544 |  | 
18 | C[C@H](Oc1cc(-c2ccn(C[C@@H](C)O)n2)nc(-c2onc3c2CCC[C@@]32CCCc3sc(N)c(C#N)c32)n1)[C@@H]1CCCN1C [I-30] | 2 | 42 | 4570 |  | 
19 | C[C@H](Oc1cc(-c2cnsc2)nc(-c2onc3c2CCC[C@@]32CCCc3sc(N)c(C#N)c32)n1)[C@@H]1CCCN1C [I-27] | 2 | 64 | 2120 |  | 
20 | C[C@H](Oc1cc([C@H]2CCN(C)C2)nc(-c2noc3c2CCC[C@@]32CCCc3sc(N)c(C#N)c32)n1)[C@@H]1CCCN1C [II-38] | 2 | 11 | 213 |  | 
21 | C[C@H](Oc1cc(-c2ccc(N)nc2)nc(-c2onc3c2CCC[C@@]32CCCc3sc(N)c(C#N)c32)n1)[C@@H]1CCCN1C [I-25] | 2 | 261 | 3450 |  | 
